Literature values, collected in publication PMC12308805, “Ultrahigh-Throughput Virtual Screening Strategies against PPI Targets: A Case Study of STAT Inhibitors” (Journal of Chemical Information and Modeling, 2025).

Test system: STAT5b
Parameters: method as in literature
Conditions: training set for retrospective virtual screening with 6MBW; known actives for STAT5b found in the literature; ref literature; cited from earlier work

SMILES | Type (Active / decoy)
COC(=O)c1cccc(-c2ccc(-c3ccc(CN(C(=O)CN(C)S(=O)(=O)c4ccc(C)cc4)c4ccc(C(=O)O)c(O)c4)cc3)cc2)c1 [BP-1-075, COC(=O)c1cccc(-c2ccc(-c3ccc(CN(C(=O)CN(C)S(=O)(=O)c4ccc(C)cc4)c4ccc(C(=O)O)c(O)c4)cc3)cc2)c1] | Active
Cc1cc(C)c(S(=O)(=O)N(C)CC(=O)N(Cc2ccc(C3CCCCC3)cc2)c2ccc(C(=O)O)c(O)c2)c(C)c1 [BP-1-108, Cc1cc(C)c(S(=O)(=O)N(C)CC(=O)N(Cc2ccc(C3CCCCC3)cc2)c2ccc(C(=O)O)c(O)c2)c(C)c1] | Active
